Drawing on publication PMC7839768 (Chemistry (Weinheim an Der Bergstrasse, Germany), 2020), this text covers Kd for four molecules.

Experiment [1] concerns the target hGal-3 (Homo sapiens, UniProt P17931). Put plainly: ITC. Type of experiment: binding.
For experiment [2], the target named is hGal-1 (Homo sapiens, UniProt P09382). Put plainly: ITC. Type of experiment: binding.

One may read the Kd as the constant that tells how readily two partners part at equilibrium. The low end stands for tighter binding, the high end for weaker binding.

Sequence of hGal-1 (P09382 2-135): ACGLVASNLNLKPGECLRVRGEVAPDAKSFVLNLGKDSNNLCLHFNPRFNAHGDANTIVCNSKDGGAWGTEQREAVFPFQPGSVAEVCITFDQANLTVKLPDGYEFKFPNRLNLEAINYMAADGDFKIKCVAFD
Sequence of hGal-3 (P17931 2-250): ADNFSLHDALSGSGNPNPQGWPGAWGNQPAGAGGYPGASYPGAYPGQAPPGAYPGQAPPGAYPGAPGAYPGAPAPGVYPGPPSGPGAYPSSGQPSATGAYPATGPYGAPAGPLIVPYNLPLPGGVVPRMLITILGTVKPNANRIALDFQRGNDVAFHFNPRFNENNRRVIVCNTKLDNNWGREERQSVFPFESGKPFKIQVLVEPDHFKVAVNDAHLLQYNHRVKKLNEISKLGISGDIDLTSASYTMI

In experiment [1], `OC[C@H]1O[C@@H]([Se][Se][C@@H]2O[C@H](CO)[C@H](O)[C@H](O)[C@H]2O)[C@H](O)[C@@H](O)[C@H]1O` [DSeDG] gave a Kd of 2800 ± 180 µM.

Turning to `OC[C@H]1O[C@@H]([Se][C@@H]2O[C@H](CO)[C@H](O)[C@H](O)[C@H]2O)[C@H](O)[C@@H](O)[C@H]1O` [SeDG], the results for the Kd in experiment [2] and in experiment [1] were 108 ± 1.4 µM and 93.1 ± 2.6 µM, respectively.

With `CC(=O)N[C@H]1[C@H](O[C@H]2[C@@H](O)[C@@H](CO)O[C@@H](O[C@H]3[C@H](O)[C@@H](NC(C)=O)[C@H](OCCN=[N+]=[N-])O[C@@H]3CO)[C@@H]2O)O[C@H](CO)[C@@H](O[C@@H]2O[C@H](CO)[C@H](O)[C@H](O)[C@H]2O)[C@@H]1O` [compound 1, 2‐Azidoethyl (β‐D‐galactopyranosyl)‐(1→4)‐(2‐acetamido‐2‐deoxy‐β‐D‐glucopyranosyl)‐(1→3)‐(β‐D‐galactopyranosyl)‐(1→4)‐2‐acetamido‐2‐deoxy‐β‐D‐glucopyranoside], the Kd turned out to be 94.7 ± 2.2 µM in experiment [2] and 5.6 ± 0.1 µM in experiment [1].

Consider `CC(=O)N[C@H]1[C@H](O[C@H]2[C@@H](O)[C@@H](CO)O[C@@H](O[C@H]3[C@H](O)[C@@H](O)[C@H](OCCCN)O[C@@H]3CO)[C@@H]2O)O[C@H](CO)[C@@H](O)[C@@H]1O[C@@H]1O[C@H](CO)[C@H](O)[C@H](O)[C@H]1O` [compound 2, 3‐Aminopropyl (β‐D‐galactopyranosyl)‐(1→3)‐(2‐acetamido‐2‐deoxy‐β‐D‐glucopyranosyl)‐(1→3)‐(β‐D‐galactopyranosyl)‐(1→4)‐β‐D‐glucopyranoside], for which the equilibrium dissociation constant (Kd) in experiment [2] is 175 ± 3.2 µM; in experiment [1], 28.1 ± 0.5 µM.
